Drawing on ChEMBL document CHEMBL1136946, “The regulation of inflammatory cytokine secretion in macrophage cell line by the chemical constituents of Rhus sylvestris” (Bioorg Med Chem Lett, 2009), this text covers IC50, inhibition and Activity for 10 compounds.

Active and inactive are the calls of the source. The rule behind the calls is not given here.

One experiment relates to MCF7. As to the kind of experiment: Cytotoxicity against human MCF7 cells by MTT assay. The class given is functional, cell-based.
The subject of the next experiment is SK-MEL-1. As to the kind of experiment: Cytotoxicity against human SK-MEL-1 cells by MTT assay. The format is functional, cell-based.
The test system of a further experiment is HeLa. As to the kind of experiment: Cytotoxicity against human HeLa cells by MTT assay. The class given is functional, cell-based.
The subject of experiment [1] is RAW264.7. As to the kind of experiment: Antiinflammatory activity in mouse RAW264.7 cells assessed as inhibition LPS-induced TNFalpha secretion at 1 uM after 12 hrs. The format is functional. The settings on record: RAW264.7, 12 h.
In experiment [2] the test system is RAW264.7. As to the kind of experiment: Antiinflammatory activity in mouse RAW264.7 cells assessed as inhibition LPS-induced IL6 secretion at 1 uM after 12 hrs. The settings on record: for inhibition at 1 µM: RAW264.7, 12 h. The class given is functional.
For experiment [3], the system named is RAW264.7. As to the kind of experiment: Antiinflammatory activity in mouse RAW264.7 cells assessed as inhibition LPS-induced TNFalpha secretion at 0.01 uM after 12 hrs. The class given is functional. Particulars: RAW264.7, 12 h.

Take `CC(C)=CCC[C@@H](C)[C@H]1CC[C@@]2(C)[C@@H]3CC=C4[C@@H](CC[C@H](O)C4(C)C)[C@]3(C)CC[C@]12C`: the IC50 with MCF7, in the experiment on SK-MEL-1 and in the experiment with HeLa was above 50 µM throughout. Also, the inhibition at 1 µM with RAW264.7 [1] is 80.9%.

For `C=C(C)[C@@H]1CC[C@]2(C)CC[C@]3(C)[C@H](CC[C@@H]4[C@@]5(C)CC[C@H](O)C(C)(C)[C@@H]5CC[C@]43C)[C@@H]12` [LUPEOL], the IC50 in the experiment with MCF7, in the experiment with SK-MEL-1 and in the experiment on HeLa was above 50 µM in each case.

With `CC(=O)O[C@H]1CC[C@]2(C)[C@H]3CC=C4[C@@H]5CC(C)(C)CC[C@]5(C)CC[C@@]4(C)[C@]3(C)CC[C@H]2C1(C)C` [beta-AMYRIN ACETATE], in the experiment with RAW264.7 [2], the result was inactive. Besides, the IC50 was 26.7 µM with MCF7, above 50 µM in the experiment on SK-MEL-1 and above 50 µM in the experiment on HeLa. In addition, the inhibition at 0.01 µM with RAW264.7 [3] amounted to 20.9%.

In the case of `CC1(C)CC[C@]2(C)CC[C@]3(C)[C@H]4CC=C5[C@@H](CC[C@H](O)C5(C)C)[C@]4(C)CC[C@@]3(C)[C@@H]2C1` [GLUTINOL], the result in the experiment on RAW264.7 [2] was inactive. Also, the IC50 with MCF7, with SK-MEL-1 and with HeLa was above 50 µM throughout. The inhibition at 0.01 µM in the experiment on RAW264.7 [3] was found to be 20.9%.

Turning to `CC(C)=CCC[C@@H](C)[C@H]1CC[C@@]2(C)[C@H]3CC[C@H]4C(C)(C)C(=O)CC[C@@]45C[C@@]35CC[C@]12C`, the result with RAW264.7 [2] was inactive. Besides, the 50% inhibitory concentration (IC50) in the experiment with MCF7, in the experiment on SK-MEL-1 and in the experiment with HeLa was above 50 µM in each case. Besides, the inhibition at 1 µM in the experiment with RAW264.7 [1] was determined as 15.2%.

With `C=C(C)C(=O)CC[C@@H](C)[C@H]1CC[C@@]2(C)[C@H]3CC[C@H]4C(C)(C)C(=O)CC[C@@]45C[C@@]35CC[C@]12C`, the outcome with RAW264.7 [2] was inactive. Also, the IC50 in the experiment on MCF7 worked out at 30.9 µM; in the experiment on SK-MEL-1, 15.9 µM; with HeLa it was 24.8 µM. Further, the inhibition at 0.01 µM in the experiment on RAW264.7 [3] is 20.9%.

Regarding `C=C(C)C(O)CC[C@@H](C)[C@H]1CC[C@@]2(C)[C@H]3CC[C@H]4C(C)(C)C(=O)CC[C@@]45C[C@@]35CC[C@]12C` (stereo not given in full), in the experiment with RAW264.7 [2], the inhibition at 1 µM amounted to 54.6%. For the same compound, the half-maximal inhibitory concentration (IC50) with MCF7, with SK-MEL-1 and with HeLa was above 50 µM each time. In the experiment on RAW264.7 [3], the inhibition at 0.01 µM came out at 20.9%.

Take `CC[C@H](CC[C@@H](C)[C@H]1CC[C@H]2[C@@H]3CC=C4C[C@@H](O)CC[C@]4(C)[C@H]3CC[C@]12C)C(C)C` [BETA-SITOSTEROL]: the inhibition at 1 µM in the experiment on RAW264.7 [2] turned out to be 54.5%. The IC50 is 42.1 µM in the experiment with MCF7, above 50 µM with SK-MEL-1 and 46.2 µM in the experiment on HeLa. Further, the inhibition at 0.01 µM in the experiment on RAW264.7 [3] worked out at 20.9%.

`CC1(C)CC[C@]2(C)CC[C@]3(C)C(=CC[C@@H]4[C@@]5(C)CC[C@H](O)C(C)(C)[C@@H]5CC[C@]43C)[C@@H]2C1` [beta-AMYRIN]: the IC50 with MCF7, with SK-MEL-1 and in the experiment on HeLa was above 50 µM each time.

On to `COc1ccc(/C=C/C(=O)c2ccc(OC)cc2O)cc1`, for which, in the experiment on RAW264.7 [2], the result was inactive. For the same compound, the results for the IC50 in the experiment on MCF7, in the experiment on SK-MEL-1 and in the experiment on HeLa were 45.4 µM, 41.7 µM and above 50 µM, respectively. For the same compound, the inhibition at 0.01 µM in the experiment with RAW264.7 [3] was 20.9%.
